According to ChEMBL document CHEMBL5465560, “Selectivity Literature for EUbOPEN Chemogenomic Library” (2024):
Values belong to the compound of their own block, whether it stands above or below them.

Experiments:
[1] = biological target: T1, Aurora kinase C (Homo sapiens) (UniProt Q9UQB9); conditions: at 10 µM
T1 sequence (whole entry): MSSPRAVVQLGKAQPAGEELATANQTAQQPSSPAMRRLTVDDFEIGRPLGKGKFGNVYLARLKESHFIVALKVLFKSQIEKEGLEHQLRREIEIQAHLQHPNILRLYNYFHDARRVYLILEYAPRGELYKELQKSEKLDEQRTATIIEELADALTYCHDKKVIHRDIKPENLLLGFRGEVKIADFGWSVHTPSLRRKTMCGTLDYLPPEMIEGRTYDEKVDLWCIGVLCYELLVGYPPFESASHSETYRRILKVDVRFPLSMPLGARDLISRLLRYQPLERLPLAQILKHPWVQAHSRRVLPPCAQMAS

[2] = biological target: Serine/threonine-protein kinase mTOR (Homo sapiens, UniProt P42345); assay: Selectivity interaction (ActivX KiNativ screen (kinase selectivity in THP-1 cell lysates)) EUB0000639a MTOR; format: subcellular; conditions: lysate
[3] = biological target: Phosphatidylinositol 4-kinase beta (Homo sapiens, UniProt Q9UBF8); assay: Selectivity interaction (Kinase panel (Invitrogen)) EUB0000639a PI4KB; conditions: at 200 nM
Sequence of Phosphatidylinositol 4-kinase beta (Q9UBF8 2-816 limits assumed): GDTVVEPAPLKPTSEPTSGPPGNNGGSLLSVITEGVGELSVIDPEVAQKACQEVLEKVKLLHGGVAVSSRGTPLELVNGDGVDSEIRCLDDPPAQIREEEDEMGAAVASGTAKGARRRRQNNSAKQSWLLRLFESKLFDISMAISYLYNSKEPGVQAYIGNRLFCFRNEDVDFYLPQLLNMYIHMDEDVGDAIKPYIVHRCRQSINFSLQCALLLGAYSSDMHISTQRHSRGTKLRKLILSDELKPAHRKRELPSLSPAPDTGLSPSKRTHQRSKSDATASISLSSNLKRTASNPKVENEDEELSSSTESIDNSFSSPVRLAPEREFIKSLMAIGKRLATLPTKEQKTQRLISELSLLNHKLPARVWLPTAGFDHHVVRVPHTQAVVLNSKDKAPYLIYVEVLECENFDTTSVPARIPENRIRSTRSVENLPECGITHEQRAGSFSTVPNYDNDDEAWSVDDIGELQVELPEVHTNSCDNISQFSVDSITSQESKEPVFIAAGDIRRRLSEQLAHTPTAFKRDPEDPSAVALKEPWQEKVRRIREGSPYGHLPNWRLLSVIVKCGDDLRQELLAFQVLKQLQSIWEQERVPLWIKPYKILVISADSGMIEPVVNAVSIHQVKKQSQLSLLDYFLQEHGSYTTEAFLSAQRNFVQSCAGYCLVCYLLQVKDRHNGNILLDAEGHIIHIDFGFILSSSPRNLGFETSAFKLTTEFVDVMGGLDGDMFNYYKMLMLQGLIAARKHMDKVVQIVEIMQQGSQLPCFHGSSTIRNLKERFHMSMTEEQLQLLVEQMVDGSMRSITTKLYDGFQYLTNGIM

[4] = biological target: TRAF2 and NCK-interacting protein kinase (Homo sapiens) (UniProt Q9UKE5); assay: Selectivity interaction (ActivX KiNativ screen (kinase selectivity in THP-1 cell lysates)) EUB0000639a TNIK; format: subcellular; conditions: lysate
Sequence of TRAF2 and NCK-interacting protein kinase (Homo sapiens) (Q9UKE5 whole entry, looked up): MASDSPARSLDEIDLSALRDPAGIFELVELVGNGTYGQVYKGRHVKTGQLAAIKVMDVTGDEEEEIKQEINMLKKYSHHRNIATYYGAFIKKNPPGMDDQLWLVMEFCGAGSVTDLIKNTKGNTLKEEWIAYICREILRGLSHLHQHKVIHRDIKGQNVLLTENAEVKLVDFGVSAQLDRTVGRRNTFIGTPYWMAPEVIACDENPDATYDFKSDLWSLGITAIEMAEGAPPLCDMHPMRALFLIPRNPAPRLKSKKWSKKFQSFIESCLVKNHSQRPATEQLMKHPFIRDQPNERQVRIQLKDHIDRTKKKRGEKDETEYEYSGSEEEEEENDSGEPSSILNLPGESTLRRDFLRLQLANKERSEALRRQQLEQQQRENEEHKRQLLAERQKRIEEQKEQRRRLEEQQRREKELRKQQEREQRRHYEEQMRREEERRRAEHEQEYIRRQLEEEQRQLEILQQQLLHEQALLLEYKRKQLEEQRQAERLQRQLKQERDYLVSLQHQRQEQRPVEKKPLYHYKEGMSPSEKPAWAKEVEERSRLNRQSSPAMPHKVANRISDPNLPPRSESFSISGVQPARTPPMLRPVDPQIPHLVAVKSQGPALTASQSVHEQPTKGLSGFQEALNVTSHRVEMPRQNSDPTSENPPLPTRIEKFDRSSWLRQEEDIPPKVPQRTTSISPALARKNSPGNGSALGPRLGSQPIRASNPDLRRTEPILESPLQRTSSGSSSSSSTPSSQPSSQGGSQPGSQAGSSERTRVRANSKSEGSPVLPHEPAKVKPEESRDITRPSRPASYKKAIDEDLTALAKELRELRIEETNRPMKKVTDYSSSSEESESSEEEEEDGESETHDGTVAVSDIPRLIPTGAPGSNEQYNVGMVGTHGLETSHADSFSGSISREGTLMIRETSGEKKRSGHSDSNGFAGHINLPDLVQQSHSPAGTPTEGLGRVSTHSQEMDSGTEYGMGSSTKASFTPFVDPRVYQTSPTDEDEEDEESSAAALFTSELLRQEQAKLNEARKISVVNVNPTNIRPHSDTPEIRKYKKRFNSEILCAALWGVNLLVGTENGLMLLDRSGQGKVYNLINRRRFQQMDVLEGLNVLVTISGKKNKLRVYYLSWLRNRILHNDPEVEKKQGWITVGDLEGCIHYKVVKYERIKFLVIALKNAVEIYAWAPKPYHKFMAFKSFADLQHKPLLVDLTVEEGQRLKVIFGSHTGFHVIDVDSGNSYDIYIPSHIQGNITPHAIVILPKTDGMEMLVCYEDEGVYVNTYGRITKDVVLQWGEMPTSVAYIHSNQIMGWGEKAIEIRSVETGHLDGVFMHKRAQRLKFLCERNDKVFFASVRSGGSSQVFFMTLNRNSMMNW

[5] = biological target: Histone-lysine N-methyltransferase 2A (Homo sapiens) (UniProt Q03164); conditions: at 10 µM
[6] = biological target: Cholecystokinin receptor type A (Homo sapiens) (UniProt P32238); assay: Selectivity interaction (Eurofins CEREP Diversity Profile (receptors and ion channels)) EUB0000279b CCKAR; conditions: at 10 µM
Sequence of Cholecystokinin receptor type A (Homo sapiens) (P32238 whole entry): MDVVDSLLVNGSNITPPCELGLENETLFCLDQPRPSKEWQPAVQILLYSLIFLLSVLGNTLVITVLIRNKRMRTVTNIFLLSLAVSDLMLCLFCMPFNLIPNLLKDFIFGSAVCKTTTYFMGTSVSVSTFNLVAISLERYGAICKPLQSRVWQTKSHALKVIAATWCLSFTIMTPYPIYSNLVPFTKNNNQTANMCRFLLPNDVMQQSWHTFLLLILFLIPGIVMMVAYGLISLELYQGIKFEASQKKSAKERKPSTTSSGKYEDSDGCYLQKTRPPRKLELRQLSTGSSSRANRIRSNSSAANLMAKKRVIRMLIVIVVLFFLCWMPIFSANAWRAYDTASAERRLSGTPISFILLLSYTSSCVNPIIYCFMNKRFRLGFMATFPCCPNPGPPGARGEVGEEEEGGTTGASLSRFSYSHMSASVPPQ

[7] = biological target: T2, 3-phosphoinositide-dependent protein kinase 1 (Homo sapiens) (UniProt O15530); conditions: at 10 µM
T2 sequence (whole entry): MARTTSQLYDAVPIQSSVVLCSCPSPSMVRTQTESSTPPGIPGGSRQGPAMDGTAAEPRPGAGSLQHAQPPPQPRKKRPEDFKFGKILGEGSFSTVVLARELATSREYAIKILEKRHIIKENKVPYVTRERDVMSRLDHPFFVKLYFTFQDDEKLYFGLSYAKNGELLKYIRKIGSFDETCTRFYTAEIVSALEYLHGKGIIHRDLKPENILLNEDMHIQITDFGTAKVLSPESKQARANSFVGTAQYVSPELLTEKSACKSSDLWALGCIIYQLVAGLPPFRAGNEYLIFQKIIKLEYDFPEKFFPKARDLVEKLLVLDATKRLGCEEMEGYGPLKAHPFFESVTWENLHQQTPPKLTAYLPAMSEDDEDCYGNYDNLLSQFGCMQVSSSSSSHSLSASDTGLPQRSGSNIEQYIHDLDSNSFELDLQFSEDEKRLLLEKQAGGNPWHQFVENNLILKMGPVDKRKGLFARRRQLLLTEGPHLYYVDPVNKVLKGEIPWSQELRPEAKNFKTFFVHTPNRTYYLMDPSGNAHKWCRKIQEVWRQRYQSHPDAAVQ

D(1A) dopamine receptor = D(1A) dopamine receptor (Homo sapiens, UniProt P21728); assay: Selectivity interaction (GPCR panel (PDSP screen)) EUB0001079a DRD1; conditions: at 10 µM
Sequence of D(1A) dopamine receptor (P21728 whole entry): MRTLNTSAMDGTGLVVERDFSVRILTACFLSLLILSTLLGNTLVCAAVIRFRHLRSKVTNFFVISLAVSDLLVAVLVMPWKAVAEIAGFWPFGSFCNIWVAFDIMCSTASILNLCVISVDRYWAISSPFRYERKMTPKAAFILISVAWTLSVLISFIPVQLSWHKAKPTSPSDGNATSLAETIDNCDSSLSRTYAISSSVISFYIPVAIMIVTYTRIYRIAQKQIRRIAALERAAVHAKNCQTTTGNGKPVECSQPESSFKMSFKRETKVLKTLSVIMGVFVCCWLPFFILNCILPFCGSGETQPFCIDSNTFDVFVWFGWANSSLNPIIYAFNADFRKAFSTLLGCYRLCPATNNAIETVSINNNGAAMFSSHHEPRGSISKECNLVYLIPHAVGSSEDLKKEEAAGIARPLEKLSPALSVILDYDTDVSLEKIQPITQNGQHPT

D(3) dopamine receptor = D(3) dopamine receptor (Homo sapiens, UniProt P35462); assay: Selectivity interaction (GPCR panel (PDSP screen)) EUB0001079a DRD3; conditions: at 10 µM
Sequence of D(3) dopamine receptor (P35462 whole entry): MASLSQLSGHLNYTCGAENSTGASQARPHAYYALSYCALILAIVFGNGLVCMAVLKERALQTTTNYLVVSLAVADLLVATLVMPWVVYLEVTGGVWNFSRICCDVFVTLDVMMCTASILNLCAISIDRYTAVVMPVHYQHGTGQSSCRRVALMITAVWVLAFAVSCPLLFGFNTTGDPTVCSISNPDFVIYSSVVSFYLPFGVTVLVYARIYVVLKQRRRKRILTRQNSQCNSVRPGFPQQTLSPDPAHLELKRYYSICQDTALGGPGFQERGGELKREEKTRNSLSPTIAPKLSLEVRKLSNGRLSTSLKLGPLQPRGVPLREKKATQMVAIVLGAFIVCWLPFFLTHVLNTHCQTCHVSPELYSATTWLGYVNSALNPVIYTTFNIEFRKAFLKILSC

[8] = biological target: T3, Serine/threonine-protein kinase tousled-like 1 (Homo sapiens) (UniProt Q9UKI8); assay: Selectivity interaction (ActivX KiNativ screen (ex vivo kinase selectivity in human PBMCs)) EUB0001619a TLK1; format: cell-based; conditions: PBMC, at 1 µM
T3 sequence (whole entry): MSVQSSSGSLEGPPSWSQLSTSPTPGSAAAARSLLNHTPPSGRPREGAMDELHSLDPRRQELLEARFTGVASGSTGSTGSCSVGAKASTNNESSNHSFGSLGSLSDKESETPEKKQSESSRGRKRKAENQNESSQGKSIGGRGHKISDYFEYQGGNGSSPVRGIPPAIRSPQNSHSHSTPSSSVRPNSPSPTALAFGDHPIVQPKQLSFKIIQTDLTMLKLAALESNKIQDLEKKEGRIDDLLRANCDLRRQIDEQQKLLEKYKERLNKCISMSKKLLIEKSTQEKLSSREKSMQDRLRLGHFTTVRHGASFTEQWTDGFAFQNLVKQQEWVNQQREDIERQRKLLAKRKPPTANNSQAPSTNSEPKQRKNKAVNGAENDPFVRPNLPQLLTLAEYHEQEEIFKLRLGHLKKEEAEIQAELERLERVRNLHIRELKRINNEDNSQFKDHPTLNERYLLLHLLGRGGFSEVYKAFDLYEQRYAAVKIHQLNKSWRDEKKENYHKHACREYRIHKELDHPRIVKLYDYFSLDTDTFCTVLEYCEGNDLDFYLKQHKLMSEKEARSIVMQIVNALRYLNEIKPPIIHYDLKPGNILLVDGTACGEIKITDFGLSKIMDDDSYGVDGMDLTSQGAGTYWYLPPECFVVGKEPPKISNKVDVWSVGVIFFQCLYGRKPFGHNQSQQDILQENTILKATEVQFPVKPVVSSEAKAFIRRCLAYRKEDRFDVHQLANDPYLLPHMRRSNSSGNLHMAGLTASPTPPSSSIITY

Compound: Cc1cc([C@@H](C)Nc2ccccc2C(=O)O)c2nc(N3CCOCC3)cc(=O)n2c1 [AZD-6482]
- % of control [1]: 93%

- % of inhibition ([2]; at 0.01 µM): 8%
- % of inhibition ([2]; at 0.04 µM): 3%
- % of inhibition ([2]; at 0.2 µM): 4.3%
- % of inhibition ([2]; at 1 µM): 9.9%
- % of inhibition ([2]; at 5 µM): -4.7%
- % of inhibition [3]: -0.901%
- % of inhibition ([4]; at 0.01 µM): -2.8%
- % of inhibition ([4]; at 0.04 µM): -2.7%
- % of inhibition ([4]; at 0.2 µM): -20.6%
- % of inhibition ([4]; at 1 µM): -28.3%
- % of inhibition ([4]; at 5 µM): 16.1%
Compound: CC[C@@H]1[C@H](F)C(=O)N[C@@H]1COc1nccc2cc(C(N)=O)c(OC)cc12 [ZIMLOVISERTIB]

- % activity [5]: > 90%
Compound: CNCCN1CCC(c2cc(CN(C)C(=O)c3cccc(Oc4ccccc4)c3)ccn2)CC1

- % of control [6]: 116%
Compound: CC(=O)c1cc(-c2ccccc2OCC2CC2)c2ncccn12

Compound: COCC(=O)NC/C=C/c1ccc2ncnc(Nc3ccc(Oc4ccc(C)nc4)c(C)c3)c2c1 [CP-724714]
- % of control [7]: 100%

Compound: Nc1cnc(N2CCc3cc(S(=O)(=O)Nc4c(F)cc(Cl)cc4F)cc(N4CCCC4=O)c32)nc1 [TP-020n]
- % of inhibition (D(1A) dopamine receptor): -8.35%
- % of inhibition (D(3) dopamine receptor): 7.88%

Compound: N#Cc1cccc(-c2c[nH]c3ncnc(N4CCOCC4)c23)c1
- % of inhibition [8]: 6%
